A short description of data set [1]: Comparative bioavailability test in 10 subjects, plasma N-acetylcysteine by HPLC (tributyl phosphine reduction, o-phthalaldehyde post-column derivatization), oral 200 mg. The source says:
A process for quantitative determination of N-acetylcysteine in plasma was used, which split the active ingredient with tributyl phosphine reductively and derivatized in with a post-HPLC column using o-phthalaldehyde.
The comparative test is documented in Biopharmaceutics & Drug Disposition, Vol. 12, 343-353 (1991).

For data set [2] the following is noted: background knowledge; cited from earlier work.

The text below walks through data of patent US5401514A, “Solid, fast-soluble pharmaceutical preparation containing S-(carboxymethyl)-L-cysteine and/or N-acetylcysteine” (Spirig AG, Pharmazeutische Praeparate, priority 1990, dated 1995).

For `CC(=O)N[C@@H](CS)C(=O)O` [N-acetylcysteine], in data set [1] (human, in vivo), the “endogenous average concentrations in plasma” value was found to be 0.08 µM. For the same compound, the “Cmax relative to endogenous plasma values” in data set [1] (one 200 mg dose, oral, up to) is reported as “up to 20 times”. Besides, in data set [2], the main effect result is given as “expectorant” and the tolerability entry was “very well tolerated”.
`N[C@@H](CSCC(=O)O)C(=O)O` [carbocysteine, S-(carboxymethyl)-L-cysteine]: in data set [2], the main effect result is listed as “expectorant” and the tolerability entry is listed as “very well tolerated”.
